# Measurements published in article PMC8151400, “Evidence of the Involvement of a Plus-C Odorant-Binding Protein HparOBP14 in Host Plant Selection and Oviposition of the Scarab Beetle Holotrichia parallela” (Insects, 2021).
# Where a name gives a salt, the structure may show the parent alone. Read-outs that look alike come from different tables or passages of the source.
# Assays:
# recombinant HparOBP14 = recombinant HparOBP14 (Holotrichia parallela, UniProt A0A0G2YD86); assay: biochemical; assay type: binding; details: for binding ability with HparOBP14: 1-NPN displacement, Figure 5
# Chain of recombinant HparOBP14 (A0A0G2YD86 entry or part of it): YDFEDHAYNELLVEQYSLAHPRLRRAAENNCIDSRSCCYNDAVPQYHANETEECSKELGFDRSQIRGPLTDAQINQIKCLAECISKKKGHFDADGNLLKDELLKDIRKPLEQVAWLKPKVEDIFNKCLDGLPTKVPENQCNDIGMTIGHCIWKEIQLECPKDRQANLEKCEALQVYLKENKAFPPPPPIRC
# Description: To determine the affinity of HparOBP14 to odorant volatiles, the fluorescent displacement binding assay was carried out. A total of 27 compounds was selected, including 7 compounds from host plant (elm) volatiles, 11 compounds from organic fertilizer volatiles, and 9 compounds common in both of them. The odorant compounds (purity ≥95%) were purchased from Sigma-Aldrich. The fluorescent probe N-phenyl-1-naphthylamine (1-NPN) was dissolved in methanol (chromatographic grade) to a final concentration of 1 mM and used as the stock solution. The stock solution of the purified protein was diluted with Tris-HCl (50 mmol/L, pH 7.4) to a final concentration of 2 μM and added into a colorimetric plate cuvette. The 1-NPN stock solution was then successively added to the protein solution to the final concentrations ranging from 2 μM to 20 μM. The fluorescence changes were recorded to get K1-NPN, the dissociation constant of the complex HparOBP14/1-NPN.
# The binding ability of HparOBP14 to the odorant compounds was determined by titrating the mixture of the protein and the 1-NPN (final concentration 2 μM of both) with each odorant compound at final concentrations ranging from 2 μM to 40 μM. The competitive dissociation constant was calculated from the corresponding IC50 values using the following equation: Ki = [IC50]/(1+ [1-NPN]/K1-NPN), where [1-NPN] is the free concentration of 1-NPN; K1-NPN is the dissociation constant of the complex HparOBP14/1-NPN.
# The fluorescence changes during the binding of either 1-NPN or odorant compounds to the HparOBP14 protein were measured and recorded with the excitation wavelength of 337 nm and within a wavelength range of 350~550 nm by a 970CRT fluorescence spectrophotometer (Yidian Analytical Instrument Company, Shanghai, China).
# [1] = tested on: female Holotrichia parallela adults; assay: Y-tube olfactometer behavioral bioassay; assay type: in vivo; details: for change of attraction after injection of dsHparOBP14: dsHparOBP14-injected females; for behavioral response of uninjected female beetles: uninjected females, vs paraffin oil
# Description: (§1) The dsRNAs of HparOBP14 and GFP (GenBank number: ACY56286) (for primers, see Table S1) were synthesized using a T7 Ribo MAX™ Express RNAi System (Promega, Madison, WI, USA) according to the manufacturer’s instructions. The GFP-dsRNA was used as the negative control. Nine-to-eleven-day-old female adult beetles were injected with 2 μg dsRNA into the adult head with a 5 μL injection needle (7000 series syringes, Hamilton, USA), then kept under the same condition as 2.1 described above. The antennae were dissected at 24 h, 48 h, 72 h, and 96 h after injection, and the samples were stored at −80 °C for further RT-qPCR analyses.
# The Y-tube olfactometer mainly consisted of a Y-shaped glass tube (main arm, 30 cm; sidearm, 20 cm; inner diameter, 2.5 cm; side arm angle, 60 degrees), an air sampler, a drying tower, a gas scrubber, and a flow meter. Two gas-washing cylinders were successively connected with the flow meter, drying tower, air pump, and Y-shaped glass tube through rubber pipes. The testing compound (concentration 1 μg/μL in paraffin oil) and paraffin oil (as control) were taken and dropped respectively into a rubber septum (Pherobio Technology Co., Ltd., Beijing, China) and placed respectively into the side arms of the Y-tube. The flow rate of the atmospheric air sampler was adjusted to 500 mL/min.
# A female adult beetle was introduced into the main arm at the downwind end of the Y-olfactometer. Each beetle was given 5 min to respond to the treatment, and the first choice that the beetle made for each of the lateral arms was recorded. The response was regarded as valid only if the beetle crawled more than 3 cm into a lateral arm and stayed for more than 1 min.
# For each compound, more than 90 beetles were tested individually until 90 responsive beetles were obtained. Each individual beetle was tested only once, and the Y-olfactometer was replaced after every 10 beetles were tested to eliminate the odor effect. The number of individual beetles that selected the compound-treated arm of the Y-olfactometer was statistically compared with the number of beetles that selected the solvent-treated arm using a Chi-square goodness of fit test.
# [2] = tested on: antennae of H. parallela female adults; assay: Electroantennogram (EAG) recording after dsRNA injection; assay type: in vivo, Holotrichia parallela; details: 20 μL of 1 μg/μL in paraffin oil; for change of EAG responsive amplitude in dsHparOBP14-injected insects compared to uninjected control: 48 h after dsHparOBP14 injection; for EAG response: female adults
# Description: as §1
# The EAG recording was conducted on the adult antennae with the EAG micromanipulator MP-15 and analyzed with EAG-Pro (Syntech, Kirchzarten, Germany). Briefly, two ends of the antennae were set on electrode holders with a conductive adhesive (Spectra 360 electrode gel). An ashless filter paper (Hangzhou Special Paper Co., Ltd., Hangzhou, China) was cut into strips (3 cm × 0.5 cm). A 20 μL compound solution (concentration 1 μg/μL in paraffin oil) was applied onto the paper strip which was then placed in a Pasteur tube (17 cm × […]) and applied to the antennae by purified air at a flow rate of 1 L/min. The paraffin oil (20 μL) was used as a control. The stimulus recording time was 0.5 s and the interval between two stimulations was more than 1 min.
# [3] = HparOBP14 and 1-NPN 2 µM each, titrated with compound 2–40 μM
# [4] = HparOBP14 and 1-NPN 2 µM each, titrated with compound 2–40 μM, read-out: IC50
# [5] = calculated from IC50: Ki = [IC50]/(1+[1-NPN]/K1-NPN), read-out: Ki
binding ability with HparOBP14 (recombinant HparOBP14),IC50 (recombinant HparOBP14; [4]),Ki (recombinant HparOBP14; [5]),SMILES,IC50 (recombinant HparOBP14),Ki (recombinant HparOBP14),Int (%): relative fluorescence intensity of 1-NPN/HparOBP14 complex after the addition of testing compound (recombinant HparOBP14; [3]),change of attraction after injection of dsHparOBP14 [1],behavioral response of uninjected female beetles [1],change of EAG responsive amplitude in dsHparOBP14-injected insects compared to uninjected control [2],EAG response [2],Kd (recombinant HparOBP14)
"weaker, or no, binding ability",> 40 µM,> 34.1 µM,CC/C=C\CCOC=O [cis-3-hexenyl formate],–,–,81.25%,–,–,–,–,–
–,> 40 µM,> 34.1 µM,CCCCCCCCCCCC=O [dodecyl aldehyde],–,–,92.42%,–,–,–,–,–
–,> 40 µM,> 34.1 µM,CCCCCCCCCC=O [decanal],–,–,77.88%,–,–,–,–,–
–,24.6 µM,21 µM,Cc1c[nH]c2ccccc12 [3-methylindole],–,–,56.22%,no obvious change,attracted,do not change significantly,clear responses,–
–,> 40 µM,> 34.1 µM,CCCCCCCCC=O [1-nonanal],–,–,69.22%,–,–,–,–,–
–,> 40 µM,> 34.1 µM,CCCCCCCC=O [octanal],–,–,–,–,–,–,–,–
–,–,–,CC1=CCC2CC1C2(C)C (stereo not drawn) [α-pinene],38.5 µM,32.8 µM,67.49%,significantly increased,attracted,decreased significantly,–,–
"weaker, or no, binding ability",> 40 µM,> 34.1 µM,CCCCC(CC)CO (stereo not drawn) [2-ethylhexanol],–,–,85.80%,–,–,–,–,–
–,> 40 µM,> 34.1 µM,CCCC(O)CC (stereo not drawn) [3-hexanol],–,–,84.27%,–,–,–,–,–
–,–,–,C=CCc1ccc(O)c(OC)c1 [eugenol],> 40 µM,> 34.1 µM,86.03%,–,–,–,–,–
–,–,–,CCCC(=O)O [butyric acid],> 40 µM,> 34.1 µM,99.07%,–,–,–,–,–
–,> 40 µM,> 34.1 µM,C=C1CC/C=C(\C)CC[C@@H]2[C@@H]1CC2(C)C [β-caryophyllen],–,–,–,–,–,–,–,–
–,–,–,CC(C)=CCC/C(C)=C/CO [geraniol],40 µM,34.1 µM,72.07%,markedly reduced,attracted,decreased significantly,–,–
–,–,–,Cc1ccc(O)cc1 [p-cresol],> 40 µM,> 34.1 µM,91.23%,–,–,–,–,–
"weaker, or no, binding ability",> 40 µM,> 34.1 µM,CC/C=C\CCOC(C)=O [cis-3-hexenyl acetate],–,–,81.43%,–,–,–,–,–
–,–,–,CC(=O)CCC=C(C)C [6-methyl-5-hepten-2-one],32 µM,28.2 µM,61.66%,significantly increased,attracted,do not change significantly,clear responses,–
–,–,–,c1ccc2[nH]ccc2c1 [indole],> 40 µM,> 34.1 µM,82.23%,–,–,–,–,–
–,–,–,"c1ccc(Nc2cccc3ccccc23)cc1 [1-NPN, N-phenyl-1-naphthylamine, reference compound]",–,–,–,–,–,–,–,5.8 µM
–,–,–,Cc1ccc(C(C)C)cc1 [p-cymene],29.9 µM,25.5 µM,62.70%,no obvious change,attracted,decreased significantly,–,–
–,> 40 µM,> 34.1 µM,CC1=CCC2C(C1)C2(C)C (stereo not drawn) [3-carene],–,–,68.52%,–,–,–,–,–
–,–,–,CC/C=C\CCO [(Z)-3-hexen-1-ol],> 40 µM,> 34.1 µM,96.53%,–,–,–,–,–

SMILES,binding ability with HparOBP14 (recombinant HparOBP14),IC50 (recombinant HparOBP14; [4]),Ki (recombinant HparOBP14; [5]),IC50 (recombinant HparOBP14),Ki (recombinant HparOBP14),Int (%): relative fluorescence intensity of 1-NPN/HparOBP14 complex after the addition of testing compound (recombinant HparOBP14; [3]),change of attraction after injection of dsHparOBP14 [1],behavioral response of uninjected female beetles [1],change of EAG responsive amplitude in dsHparOBP14-injected insects compared to uninjected control [2],EAG response [2],Kd (recombinant HparOBP14)
CC1=CC[C@H](C(C)C)C=C1 (racemic) [α-phellandrene],"weaker, or no, binding ability",–,–,> 40 µM,> 34.1 µM,83.00%,–,–,–,–,–
CCCCCCCO [1-heptanol],–,–,> 34.1 µM,> 40 µM,–,83.41%,–,–,–,–,–
C=C1C2CCC(C2)C1(C)C (stereo not drawn) [camphene],–,> 40 µM,> 34.1 µM,–,–,83.88%,–,–,–,–,–
C=CC(C)(O)CCC=C(C)C (stereo not drawn) [linalool],"weaker, or no, binding ability",–,–,> 40 µM,> 34.1 µM,89.20%,–,–,–,–,–
CCCCCCO [1-hexanol],–,–,> 34.1 µM,> 40 µM,–,72.19%,–,–,–,–,–
CO [methanol],–,32.1 µM,27.4 µM,–,–,65.66%,markedly reduced,attracted,decreased significantly,–,–
C=O [formaldehyde],–,34.6 µM,29.5 µM,–,–,68.91%,no obvious change,attracted,decreased significantly,–,–
